Results reported in US8586591B2, “Aminopyrazine derivative and medicine” (Nippon Shinyaku Co., Ltd., priority 2009, dated 2013).
Counter-ions that a name gives are not always drawn.

Assays:
[1] = molecular target: T1, JAK2 tyrosine kinase (Homo sapiens, UniProt O60674); assay: Test 1: inhibitory activity to JAK2 tyrosine kinase (ELISA); assay type: biochemical; conditions: 25 μM ATP in substrate solution, 30° C. for 1 hour, n=2
T1 construct: purchased Carnabioscience Co
Procedure: Test 1: Test for inhibitory activity to JAK2 and JAK3 tyrosine kinase 1. Preparation of Test Material
The test material was dissolved in dimethylsulfoxide (DMSO) to be 10 mM, and further diluted with DMSO to be 100-fold concentrations for measurement (1000, 300, 100, 30, 10, 3, 1, 0.3, 0.1, 0.03, 0.01 μM). In addition, solutions diluted with an assay buffer up to 20 times were used as solutions of the test material. As a negative control, a solution of DMSO diluted 20 times with an assay buffer was used. As the assay buffer, 15 mM Tris-Cl (pH 7.5), 0.01 v/v % Tween-20, and 1 mM dithiothreitol were used.
2. Measurement of the Activities of JAK2 and JAK3 Tyrosine Kinases
The activity was determined by ELISA. The solution of the test material (10 μl each; n=2) was placed in a streptavidine-coated 96 well plate (DELFIA Strip Plate 8×12 wells; Perkin Elmer), to which 20 μl each of substrate solution (625 nM biotin-labeled peptide substrate, 25 μM ATP, 25 mM MgCl2, 15 mM Tris-Cl (pH 7.5), 0.01 v/v % Tween-20, and 1 mM dithiothreitol), was added and stirred. Finally, 20 μl each of JAK2 tyrosine kinase (Carnabioscience Co.) (diluted to 0.75 nM with assay buffer) or JAK3 tyrosine kinase (Carnabioscience Co.) (diluted to 0.75 nM with assay buffer) was added, stirred and allowed to stand at 30° C. for 1 hour. The plate was washed 4 times with a washing buffer (50 mM Tris-Cl, pH 7.5, 150 mM NaCl, 0.02 v/v % Tween-20), and then a blocking buffer (0.1% Bovine Serum Albumin, 50 mM Tris-Cl, pH 7.5, 150 mM NaCl, 0.02 v/v % Tween-20)(150 μl each) was added for blocking at 30° C. for 30 minutes. Blocking buffer was removed, and there was added 100 μl each of horse radish peroxidase-labeled anti-phosphorylated tyrosin kinase antibody (BD Bioscience Co.) (diluted 10,000 times with blocking buffer). The plate was incubated at 30° C. for 30 minutes and then washed 4 times with a washing buffer, and 100 μl each of 3,3′,5,5′-tetramethylbenzidine (Sigma-Aldrich Co.) was added to develop color for 10 minutes. 0.1 M sulfuric acid (100 μl each) was added to stop the reaction. The absorbance was measured by means of a micro-plate reader (BIO-RAD; Model 3550) at 450 nm.
3. Analysis of the Results of the Measurement
The measured absorbance was subjected to a non-linear regression analysis by means of a SAS system (SAS Institute Inc.), and the concentration (IC50) of the test material which inhibited 50% of the activity of each tyrosine kinase was estimated.

[2] = molecular target: T2, JAK3 tyrosine kinase (Homo sapiens, UniProt P52333); assay: Test 1: inhibitory activity to JAK3 tyrosine kinase (ELISA); assay type: biochemical; conditions: 25 μM ATP in substrate solution, 30° C. for 1 hour, n=2
T2 construct: purchased Carnabioscience Co
T2 sequence (P52333 1-1124): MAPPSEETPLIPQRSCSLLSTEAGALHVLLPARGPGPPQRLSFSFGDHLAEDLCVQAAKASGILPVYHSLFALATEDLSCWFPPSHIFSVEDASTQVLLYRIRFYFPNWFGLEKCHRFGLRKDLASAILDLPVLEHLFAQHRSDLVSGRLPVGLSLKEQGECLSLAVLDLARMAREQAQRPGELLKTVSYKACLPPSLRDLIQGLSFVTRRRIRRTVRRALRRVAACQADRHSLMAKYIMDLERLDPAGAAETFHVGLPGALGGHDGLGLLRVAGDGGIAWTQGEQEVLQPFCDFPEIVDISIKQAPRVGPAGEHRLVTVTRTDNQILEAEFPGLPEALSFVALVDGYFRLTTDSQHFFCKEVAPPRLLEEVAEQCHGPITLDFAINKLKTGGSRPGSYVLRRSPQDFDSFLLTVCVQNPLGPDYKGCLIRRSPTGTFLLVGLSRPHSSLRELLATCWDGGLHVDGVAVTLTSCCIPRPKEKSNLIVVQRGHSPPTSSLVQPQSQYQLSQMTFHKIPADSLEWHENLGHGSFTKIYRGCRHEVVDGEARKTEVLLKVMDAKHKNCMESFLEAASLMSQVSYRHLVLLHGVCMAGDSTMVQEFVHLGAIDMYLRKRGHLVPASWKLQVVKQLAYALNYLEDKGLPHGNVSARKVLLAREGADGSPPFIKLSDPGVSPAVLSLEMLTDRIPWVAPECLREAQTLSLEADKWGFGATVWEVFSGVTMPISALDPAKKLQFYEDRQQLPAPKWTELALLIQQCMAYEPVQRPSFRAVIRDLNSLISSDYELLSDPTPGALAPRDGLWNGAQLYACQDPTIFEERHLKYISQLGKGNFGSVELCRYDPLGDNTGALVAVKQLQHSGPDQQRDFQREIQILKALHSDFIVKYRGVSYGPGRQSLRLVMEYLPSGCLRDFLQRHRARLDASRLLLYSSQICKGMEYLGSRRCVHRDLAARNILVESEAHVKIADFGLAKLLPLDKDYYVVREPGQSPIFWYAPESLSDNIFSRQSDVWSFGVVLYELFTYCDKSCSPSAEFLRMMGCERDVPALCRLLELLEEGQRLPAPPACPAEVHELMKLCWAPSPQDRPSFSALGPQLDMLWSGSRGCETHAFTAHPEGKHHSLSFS
Procedure: Test 1: Test for inhibitory activity to JAK2 and JAK3 tyrosine kinase 1. […] The test material was dissolved in dimethylsulfoxide (DMSO) to be 10 mM, and further diluted with DMSO to be 100-fold concentrations for measurement (1000, 300, 100, 30, 10, 3, 1, 0.3, 0.1, 0.03, 0.01 μM). In addition, solutions diluted with an assay buffer up to 20 times were used as solutions of the test material. As a negative control, a solution of DMSO diluted 20 times with an assay buffer was used. […] 2. Measurement of the Activities of JAK2 and JAK3 Tyrosine Kinases The activity was determined by ELISA. […] The absorbance was measured by means of a micro-plate reader (BIO-RAD; Model 3550) at 450 nm. 3. Analysis of the Results of the Measurement The measured absorbance was subjected to a non-linear regression analysis by means of a SAS system (SAS Institute Inc.), and the concentration (IC50) of the test material which inhibited 50% of the activity of each tyrosine kinase was estimated.

T1 sequence (O60674 whole entry): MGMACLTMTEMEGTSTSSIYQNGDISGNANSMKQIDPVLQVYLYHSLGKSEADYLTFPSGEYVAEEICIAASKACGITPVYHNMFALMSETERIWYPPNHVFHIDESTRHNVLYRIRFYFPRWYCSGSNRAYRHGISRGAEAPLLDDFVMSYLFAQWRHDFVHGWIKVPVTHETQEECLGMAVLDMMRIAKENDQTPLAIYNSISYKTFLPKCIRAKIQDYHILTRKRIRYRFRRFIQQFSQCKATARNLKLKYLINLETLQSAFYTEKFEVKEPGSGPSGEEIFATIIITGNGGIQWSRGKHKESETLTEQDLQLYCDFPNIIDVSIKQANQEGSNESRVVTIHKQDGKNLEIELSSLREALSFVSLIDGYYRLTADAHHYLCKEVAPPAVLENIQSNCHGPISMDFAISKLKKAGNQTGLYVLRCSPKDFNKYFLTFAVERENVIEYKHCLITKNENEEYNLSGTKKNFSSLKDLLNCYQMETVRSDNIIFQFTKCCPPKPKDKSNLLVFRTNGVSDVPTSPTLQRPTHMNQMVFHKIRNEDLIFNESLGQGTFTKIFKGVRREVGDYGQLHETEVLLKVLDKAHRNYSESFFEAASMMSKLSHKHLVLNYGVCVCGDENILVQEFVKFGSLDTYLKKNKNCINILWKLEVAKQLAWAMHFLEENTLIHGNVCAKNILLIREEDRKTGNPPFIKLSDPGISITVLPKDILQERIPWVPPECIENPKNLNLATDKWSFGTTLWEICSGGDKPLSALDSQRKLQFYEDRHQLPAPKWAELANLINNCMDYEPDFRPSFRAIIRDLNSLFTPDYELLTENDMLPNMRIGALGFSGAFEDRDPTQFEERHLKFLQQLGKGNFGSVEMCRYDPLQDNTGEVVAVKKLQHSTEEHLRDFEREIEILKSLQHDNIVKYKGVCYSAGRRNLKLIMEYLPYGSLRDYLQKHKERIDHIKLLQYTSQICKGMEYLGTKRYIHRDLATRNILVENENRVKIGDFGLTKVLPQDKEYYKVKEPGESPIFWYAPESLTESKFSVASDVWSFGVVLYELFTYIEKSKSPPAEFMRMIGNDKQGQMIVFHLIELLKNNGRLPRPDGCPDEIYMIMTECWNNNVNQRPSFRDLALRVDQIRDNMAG

Compound | IC50 [1] [nM] | IC50 [2] [nM]
CC(C)C1(O)CN(c2cc(Nc3cnccn3)nc(N[C@@H](C)c3ccc(F)cc3)c2)C1 [Example 204, (S)-1-{2-[1-(4-Fluorophenyl)ethylamino]-6-(pyrazin-2-ylamino)pyridin-4-yl}-3-isopropylazetidin-3-ol hydrochloride] | 8.1 | 220
COCc1cc(Nc2cnccn2)nc(N[C@@H](C)c2ccc(F)cc2)c1 [Example 175, (S)—N^2-[1-(4-Fluorophenyl)ethyl]-4-(methoxymethyl)-N^6-(pyrazin-2-yl)pyridine-2,6-diamine] | 4.9 | 400
C[C@H](Nc1nc(NCc2ccccn2)cc(Nc2cnccn2)n1)c1ccc(F)cc1 [Example 106, (S)—N^2-[1-(4-Fluorophenyl)ethyl]-N^4-(pyrazin-2-yl)-N^6-(pyridin-2-ylmethyl)pyrimidine-2,4,6-triamine] | 1.9 | 110
C[C@H](Nc1nc(Nc2cnccn2)cc(N[C@@H](CO)C(N)=O)n1)c1ccc(F)cc1 [Example 109, (S)-2-{2-[(S)-1-(4-Fluorophenyl)ethylamino]-6-(pyrazin-2-ylamino)pyrimidin-4-ylamino}-3-hydroxypropanamide] | 2.4 | 130
C[C@H](Nc1cc(N2CC(O)(C(F)(F)F)C2)cc(Nc2cnccn2)n1)c1ccc(F)cc1 [Example 206, (S)-1-{2-[1-(4-Fluorophenyl)ethylamino]-6-(pyrazin-2-ylamino)pyridin-4-yl}-3-(trifluoromethyl)azetidin-3-ol hydrochloride] | 10 | 360
C[C@H](Nc1cc(-c2cccnc2)cc(Nc2cnccn2)n1)c1ccc(F)cc1 [Example 5, (S)—N^2′-[1-(4-Fluorophenyl)ethyl]-N^6′-(pyrazin-2-yl)-3,4′-bipyridine-2′,6′-diamine hydrochloride] | 0.62 | 62
4-{2-[(1S)-1-(4-Fluorophenyl)ethylamino]-6-(pyrazin-2-ylamino)pyrimidin-4-yl}-1λ^6,4-thiomorpholin-1,1-dione [Example 226] | 1.1 | 24
C[C@H](Nc1nc(Nc2cnccn2)ccc1C(N)=O)c1ccc(F)cc1 [Example 187, (S)-2-[1-(4-Fluorophenyl)ethylamino]-6-(pyrazin-2-ylamino) nicotinamide] | 2.4 | 400
CC(C)[C@@H](CO)Nc1cc(Nc2cnccn2)nc(N[C@@H](C)c2ccc(F)cc2)n1 [Example 99, (S)-2-{2-[(S)-1-(4-Fluorophenyl)ethylamino]-6-(pyrazin-2-ylamino)pyrimidin-4-ylamino}-3-methylbutan-1-ol hydrochloride] | 2.4 | 200
C[C@H](Nc1nc(Nc2cnccn2)cc(N2CCCNC2=O)n1)c1ccc(F)cc1 [Example 18, (S)-1-{2-[1-(4-Fluorophenyl)ethylamino]-6-(pyrazin-2-ylamino)pyrimidin-4-yl}tetrahydropyrimidin-2(1H)-one] | 3 | 130
C[C@H](Nc1nc(Nc2cnccn2)cc(N2CCC2=O)n1)c1ccc(F)cc1 [Example 45, (S)-1-{2-[1-(4-Fluorophenyl)ethylamino]-6-(pyrazin-2-ylamino)pyrimidin-4-yl}azetidin-2-one] | 9 | 2300
C[C@H](Nc1cc(-c2ccnn2C)cc(Nc2cnccn2)n1)c1ccc(F)cc1 [Example 47, (S)—N^2-[1-(4-Fluorophenyl)ethyl]-4-(1-methyl-1H-pyrazol-5-yl)-N^6-(pyrazin-2-yl)pyridine-2,6-diamine] | 12 | 1300
CCCCNC(=O)c1cc(Nc2cnccn2)nc(N[C@@H](C)c2ccc(F)cc2)c1 [Example 169, (S)—N-Butyl-2-[1-(4-fluorophenyl)ethylamino]-6-(pyrazin-2-ylamino) isonicotinamide] | 3 | 500
C[C@H](Nc1cc(N2CC(N3CCOCC3)C2)cc(Nc2cnccn2)n1)c1ccc(F)cc1 [Example 233, (S)—N^2-[1-(4-Fluorophenyl)ethyl]-4-[3-morpholinoazetidin-1-yl]-N^6-(pyrazin-2-yl)pyridine-2,6-diamine] | 5.8 | 140
CC(=O)NC1CN(c2cc(Nc3cnccn3)nc(N[C@@H](C)c3ccc(F)cc3)n2)C1 [Example 42, (S)—N-(1-{2-[1-(4-Fluorophenyl)ethylamino]-6-(pyrazin-2-ylamino)pyrimidin-4-yl}azetidin-3-yl)acetamide] | 1 | 66
C[C@H](Nc1nc(Nc2cnccn2)cc(-c2cn[nH]c2)n1)c1ccc(F)cc1 [Example 34, (S)—N^2-[1-(4-Fluorophenyl)ethyl]-N^4-(pyrazin-2-yl)-6-(1H-pyrazol-4-yl)pyrimidine-2,4-diamine maleate] | 0.51 | 59
C[C@H](Nc1nc(Nc2cnccn2)cc(O[C@H]2CCCC[C@@H]2O)n1)c1ccc(F)cc1 [Example 101, (1S,2S)-2-{2-[(S)-1-(4-Fluorophenyl)ethylamino]-6-(pyrazin-2-ylamino)pyrimidin-4-yloxy}cyclohexanol hydrochloride] | 11 | 600
C[C@H](Nc1cc(NS(C)(=O)=O)cc(Nc2cnccn2)n1)c1ccc(F)cc1 [Example 209, (S)—N-{2-[1-(4-Fluorophenyl)ethylamino]-6-(pyrazin-2-ylamino)pyridin-4-yl}methanesulfonamide hydrochloride] | 7.1 | 440
CNC(=O)c1ccc(Nc2cnccn2)nc1N[C@@H](C)c1ccc(F)cc1 [Example 185, (S)-2-[1-(4-Fluorophenyl)ethylamino]-N-methyl-6-(pyrazin-2-ylamino)nicotinamide] | 4.2 | 380
